Laboratory results taken from the supplement of paper PMC10307832.

Columns and labels:
Assay in all cases: relative viability (nuclei count vs DMSO), 5 days (fraction); higher = more cells survive
XMD13-2 = compound: C1CC1C(=O)NC2=NNC3=C2C=CC(=C3)C4=CC(=CC=C4)C(=O)NC5CC5 [XMD13-2]
In short: (§1)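 After an overnight hold at 37 °C, lung cancer cell lines in 1536-well plates were pinned with five library-drug doses (not always all listed), each √10 from the next, on vehicle-anchored plates. The cells stayed 5 days without fresh medium, then a one-step fix, permeabilisation and Hoechst stain preceded 4× imaging and MetaXpress nuclear counts. A plate passed only with control CV under 25% and at least one doubling. Viability is the median, over plates, of treated-well nuclei relative to vehicle-well nuclei.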

ALW-II-49-7 = compound: Cc1ccc(C(=O)Nc2cccc(C(F)(F)F)c2)cc1Nc1cncc(C(N)=O)c1 [ALW-II-49-7]
In short: as §1

Dasatinib = compound: Cc1nc(Nc2ncc(C(=O)Nc3c(C)cccc3Cl)s2)cc(N2CCN(CCO)CC2)n1 [Dasatinib]
In short: as §1

| Cell Line | relative viability (XMD13-2; 0.05 µM) | relative viability (XMD13-2; 0.1581 µM) | relative viability (XMD13-2; 0.5 µM) | relative viability (XMD13-2; 1.581 µM) | relative viability (XMD13-2; 5 µM) | relative viability (ALW-II-49-7; 0.08 µM) | relative viability (ALW-II-49-7; 0.253 µM) | relative viability (ALW-II-49-7; 0.8 µM) | relative viability (ALW-II-49-7; 2.53 µM) | relative viability (ALW-II-49-7; 8 µM) | relative viability (Dasatinib; 0.005 µM) | relative viability (Dasatinib; 0.01581 µM) | relative viability (Dasatinib; 0.05 µM) | relative viability (Dasatinib; 0.075 µM, anchor plate) | relative viability (Dasatinib; 0.1581 µM) | relative viability (Dasatinib; 0.5 µM) |
| --- | --- | --- | --- | --- | --- | --- | --- | --- | --- | --- | --- | --- | --- | --- | --- | --- |
| NCI-H2023 | 1.18 | 1 | 0.992 | 0.986 | 1.02 | 0.965 | 0.963 | 0.995 | 0.96 | 0.911 | 0.883 | 0.888 | 0.735 | 0.592 | 0.648 | 0.593 |
| EBC-1 | 1.07 | 1.09 | 1 | 0.858 | 0.508 | 0.93 | 0.93 | 0.79 | 1 | 0.697 | 1.03 | 0.893 | 0.894 |  | 0.831 | 0.736 |
| NCI-H1666 | 1.05 | 1.05 | 0.997 | 0.994 | 0.964 | 0.988 | 0.943 | 0.92 | 1.24 | 1.04 | 0.995 | 1 | 1.02 | 0.851 | 0.829 | 0.478 |
| NCI-H1975 | 1.23 | 1.01 | 0.98 | 1.1 | 0.961 | 0.956 | 0.996 | 0.757 | 0.855 | 0.841 | 0.83 | 0.768 | 0.78 | 0.378 | 0.545 | 0.282 |
| NCI-H2170 | 1.03 | 0.954 | 0.986 | 1.01 | 0.881 | 1 | 0.969 | 0.973 | 0.908 | 0.966 | 0.961 | 0.914 | 0.784 | 0.61 | 0.585 | 0.378 |
| NCI-H1355 | 1.12 | 0.961 | 0.995 | 0.949 | 1.02 | 0.939 | 0.963 | 0.953 | 0.957 | 0.928 | 1 | 0.83 | 0.998 | 0.731 | 0.781 | 0.582 |
| NCI-H1648 | 1.14 | 0.764 | 0.84 | 0.94 | 0.814 | 0.633 | 0.839 | 0.676 | 0.683 | 0.797 | 1.26 | 0.938 | 1.03 |  | 0.405 | 0.192 |
| A549 | 1.28 | 1.02 | 1.06 | 0.963 | 0.962 | 1.08 | 0.966 | 0.891 | 1.02 | 0.947 | 0.989 | 0.85 | 0.914 |  | 0.626 | 0.346 |
| SK-MES-1 | 1.13 | 1.01 | 1.03 | 0.968 | 1.07 | 0.957 | 0.97 | 0.963 | 0.851 | 0.742 | 1.05 | 0.922 | 0.964 | 0.385 | 0.61 | 0.215 |
| EKVX | 1.08 | 0.915 | 0.969 | 0.923 | 1.07 | 1.06 | 0.953 | 0.968 | 0.91 | 0.974 | 0.932 | 0.879 | 0.807 | 0.605 | 0.68 | 0.176 |
| RERF-LC-KJ | 1.08 | 0.942 | 1.05 | 0.938 | 0.912 | 1.02 | 1.06 | 0.997 | 0.911 | 0.939 | 1.01 | 0.928 | 0.944 | 0.781 | 0.841 | 0.704 |
| NCI-H1755 | 1.07 | 0.997 | 0.994 | 0.985 | 1.04 | 0.975 | 1.03 | 1.02 | 0.968 | 0.897 | 0.964 | 0.868 | 0.747 | 0.44 | 0.544 | 0.363 |
| NCI-H661 | 0.971 | 1.04 | 0.971 | 0.976 | 0.844 | 1.04 | 0.936 | 0.927 | 0.975 | 0.901 | 0.955 | 1.06 | 0.911 | 0.974 | 0.8 | 0.661 |
| LOU-NH91 | 1.12 | 0.979 | 0.965 | 0.85 | 1.15 | 0.939 | 1.03 | 0.951 | 0.654 | 0.837 | 0.839 | 0.893 | 0.724 | 0.558 | 0.587 | 0.422 |
| LXF-289 | 1.07 | 1.02 | 1.04 | 1.07 | 1.05 | 0.931 | 1.04 | 1.02 | 1.06 | 1.05 | 1.03 | 1.07 | 1.08 | 0.227 | 0.485 | 0.226 |
| HCC-44 | 0.988 | 0.996 | 1.05 | 0.978 | 1.03 | 0.971 | 1.06 | 0.969 | 1.03 | 0.957 | 1.12 | 0.994 | 1.04 |  | 0.961 | 0.533 |
| HARA | 1.13 | 0.95 | 0.963 | 0.943 | 1.12 | 0.87 | 0.777 | 0.987 | 1.17 | 0.846 | 0.797 | 0.73 | 0.647 | 0.288 | 0.3 | 0.175 |
| 201T | 1.02 | 1.03 | 1.02 | 1 | 1.02 | 0.979 | 1.04 | 0.915 | 1.02 | 0.838 | 0.991 | 0.766 | 0.82 | 0.583 | 0.602 | 0.417 |
| LC-2-ad | 1.03 | 1.04 | 1.03 | 0.94 | 0.994 | 0.942 | 1.03 | 0.922 | 1.08 | 0.861 | 1 | 0.984 | 0.924 | 0.601 | 0.674 | 0.35 |
| NCI-H596 | 1.03 | 1.02 | 0.944 | 1.03 | 1.12 | 0.913 | 0.988 | 0.941 | 0.893 | 0.829 | 0.978 | 0.788 | 0.736 | 0.631 | 0.551 | 0.453 |
| NCI-H1437 | 0.984 | 0.992 | 1.02 | 0.941 | 1.06 | 0.985 | 0.989 | 0.973 | 0.994 | 0.947 | 1.05 | 1.05 | 1.04 | 0.443 | 0.887 | 0.348 |
| NCI-H727 | 1.06 | 0.892 | 0.973 | 0.947 | 1.04 | 1.09 | 0.907 | 0.9 | 0.902 | 0.855 | 0.724 | 0.678 | 0.53 | 0.37 | 0.388 | 0.256 |
